Source: US20250354117A1, “METHODS OF GENERATING NATURAL KILLER CELLS FROM PLURIPOTENT STEM CELLS AND COMPOSITIONS THEREOF” (THE CHILDREN'S MEDICAL CENTER CORPORATION, priority 2022, published 2025)
“Also recorded” adds a separate entry of the source.

How the values were obtained:
[1] = test system: CD34+ umbilical cord blood HSPCs; assay: UNC0642 treatment during T cell differentiation, flow cytometry; type: cell-based, human; conditions: continuous treatment 10, 50, 100, 500 nM; 28 days of differentiation; vs DMSO control
Source text: Error bars represent the standard deviation across n=3 independent differentiations per dose of UNC0642. *=p<0.05 compared to the DMSO control using a two-tailed Wilcoxon sum-rank test.
Error bars represent standard deviation. N=3 independent differentiation replicates per dose of UNC0642.
CD34+ umbilical cord blood cells (AllCells) were thawed from liquid nitrogen storage and T cell differentiation was immediately initiated with a StemSpan T cell Generation Kit (Stem Cell Technologies, 09940), as described above. Cells were treated with UNC0642 (Cayman Chemical, 14604) over the entire duration of the differentiation and fresh compound was supplemented every 3-4 days to the media. A range of doses were tested (10 nM, 50 nM, 100 nM, and 500 nM) alongside a 0.5% DMSO vehicle control with n=3 replicate differentiations per condition. Cells were collected after 28 days of differentiation to assess NK and T cell populations by flow cytometry.

[2] = test system: FKBP12^F36V tagged TRIM28; assay: Western-blot for TRIM28 on dTAG knockin iPS clones; type: cell-based, human; conditions: 500 nM, 24 hours, four iPS clones, vs DMSO
Protocol: FIG. 35A-35F examines rapid and selective degradation of endogenous TRIM28 in human iPS cells. […] An mNeon-FKBP12^F36V open reading frame DNA sequence was knocked into the TRIM28 locus (SEQ ID NO: 32) to tag the N-terminus of TRIM28 and thus create an mNeon-FKBP12^F36V-TRIM28 fusion protein. The knockin was achieved through CRISPR/Cas9-mediated HDR (gRNA, SEQ ID: 31) where the knockin cassette was delivered to cells in an rAAV6 vector. FIG. 35B examines bulk knockin efficiency was assessed with flow cytometry for mNeon five days after simultaneous CRISPR/Cas9 RNP nucleofection and rAAV6 infection of iPS cells (MOI: 50,000 viral genomes/cells). […] The wild-type, unedited locus results in an amplicon of 1,204 bp and the knockin locus generates an amplicon of 2,371 bp. (*) denotes biallelic knockin clones. FIG. 35D analyzes microscopy for DAPI and mNeon on a biallelic knockin iPS clone to visualize nuclear localization of mNeon signal, consistent with the known nuclear localization of endogenous TRIM28 proteins. FIG. 35E examines titration of degrader molecules (dTAG-13 and dTAG^V-1) on a biallelic knockin iPS clone, assayed by flow cytometry for mNeon as a quantitative proxy for TRIM28 protein expression.

[3] = test system: CD34+ umbilical cord blood HSPCs; assay: In vitro T cell differentiation (Notch-based, stroma-free) of CRISPR/Cas9 RNP-edited HSPCs, flow cytometry; design: species or system human; conditions: six weeks of in vitro differentiation, Cas9 RNP knockout of EHMT1, n=3; for CD56+CD3− natural killer (NK) cells (fractional abundance within CD45+DAPI− population): AAVS1-targeting gRNA control: 1.2±0.45%; for CD56−CD3+ T cells (fractional abundance within CD45+DAPI− population): AAVS1-targeting gRNA control: 38.7±12.5%
Protocol: Genetic knockouts of select genes were generated in primary hematopoietic stem and progenitor cells (HSPCs) via nucleofection of CRISPR/Cas9 ribonucleoproteins (RNPs). Two independent knockouts were generated for each gene using separate gRNAs and knockouts were replicated across two different donor pools of human umbilical cord blood. First, CD34+ cord blood cells (AllCells) were thawed via dropwise addition of RPMI 1640+10% FBS. Cells were centrifuged at 200 g for 8 minutes and subsequently washed with FACS buffer (PBS+2% FBS). Cells were cultured for 48 hours prior to nucleofection at a density of 250,000 cells/mL in SFEM II™ media (StemCell Technologies) supplemented with 100 ng/mL SCF, TPO, FLT3L, and IL-6 (Peprotech) within a 5% O2, 5% CO2, 37° C. incubator. Next, the top two protospacer sequences for each desired gene were selected from the Brunello genome-wide knockout library (Broad Institute) based on the Rule Set 2 score. A control gRNA targeting the AAVS1 locus was designed in Benchling™. All gRNA sequences were synthesized by IDT as an Alt-R CRISPR/Cas9 sgRNA. RNPs were complexed by incubating 105 pmol of Cas9 protein (IDT) with 125 pmol of sgRNA in a 5 uL total volume for 10 minutes at room temperature. CD34+ cord blood HSPCs were washed with FACS buffer and 125,000 cells were resuspended in 20 μL of P3 Primary Cell Nucleofection Solution (Lonza) per nucleofection. RNPs were nucleofected into HSPCs with 3.85 uM electroporation enhancer (IDT) using a 16-reaction nucleovette on a Lonza 4D-Nucleofector (program DZ-100). Cells were cultured for 36-48 hours at 5% O2, 5% CO2 in 96-well U-bottom plates (Corning) then subsequently harvested for genomic DNA extraction and initiation of in vitro differentiation assays.
Following 36-48 hours post-nucleofection of Cas9 RNPs, 5,000 cord blood HSPCs were differentiated to T cell lineages using the StemSpan™ T cell Generation Kit (Stem Cell Technologies) per the manufacturer's instructions with n=3 replicate differentiations per gRNA. Total viable cell counts were performed on Day 14, 28 and 42 of differentiation. T cell development was assessed by flow cytometry on days 14 and 42 of differentiation to assess lymphoid progenitors (CD45, CD5 and CD7) and mature T cells (CD45, CD4, CD8, CD3, CD56, CD5 and CD7), respectively. Cells were stained with propidium iodide as a viability marker and the following antibodies for flow cytometry: CD45 APC-Cy7 (557833, BD Biosciences), CD4 PE-Cy5 (IM2636U, Beckman Coulter Immunotech), CD8-BV421 (RPA-T8, BD Horizon), CD5-BV510 (UCHT2, BD Biosciences), CD3-PE-Cy7 (UCHT1, BD Pharmigen), CD7-PE (555361, BD Pharmigen), CD56 FITC (BD Pharmigen). […]

Compound | proportion of CD56+CD3− NK cells and CD56−CD3+ T cells [1] | TRIM28 protein degradation [2] | CD56+CD3− natural killer (NK) cells (fractional abundance within CD45+DAPI− population) [3] [%] | CD56−CD3+ T cells (fractional abundance within CD45+DAPI− population) [3] [%]
COc1cc2c(NC3CCN(C(C)C)CC3)nc(N3CCC(F)(F)CC3)nc2cc1OCCCN1CCCC1 [UNC0642] | dose-dependent acquisition of NK cells; also recorded: dose-dependent phenocopy of the EHMT1 CRISPR/Cas9 knockout |  |  | 
CC[C@H](C(=O)N1CCCC[C@H]1C(=O)O[C@H](CCc1ccc(OC)c(OC)c1)c1ccccc1OCC(=O)NCCCCCCC(=O)N[C@H](C(=O)N1C[C@H](O)C[C@H]1C(=O)N[C@@H](C)c1ccc(-c2scnc2C)cc1)C(C)(C)C)c1cc(OC)c(OC)c(OC)c1 [dTAG^V-1] |  | near-complete degradation |  | 
EHMT1 gRNA01: SEQ ID NO: 5, GGGCCGGTGCACAAACAGCG; Alt-R CRISPR/Cas9 sgRNA delivered as Cas9 RNP (guide GGGCCGGUGCACAAACAGCG; IDT Alt-R synthetic sgRNA, modifications not given here) |  |  | 35.4±5.7 | 13.9±1.8
EHMT1 gRNA02: SEQ ID NO: 6, TTCGGCTGCTTCCATCAACG; Alt-R CRISPR/Cas9 sgRNA delivered as Cas9 RNP (guide UUCGGCUGCUUCCAUCAACG; IDT Alt-R synthetic sgRNA, modifications not given here) |  |  | 58.7±4.9 | 6.6±0.69
